# Experimental data published in US20260234115A1, “LIPID COMPOUNDS, COMPOSITIONS, AND USES THEREOF” (Liberate Bio, Inc., priority 2023, published 2026).
# Marks after values point to notes of the source that are not given here.
# System: mouse organs
# Test: In vivo activity screening in mice: organ mean total flux (p/s) of luciferase activity after injection of F2 LNP pools (Table 6, FIG. 7A-7C)
# Settings: luciferase mRNA
# Outline: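 C57BL/6J mice given one tail-vein injection of pooled Formulation F2 LNPs carrying firefly luciferase mRNA (0.25-3 mg/kg) in PBS. At 4-6 h, s.c. D-luciferin given; organs imaged ex vivo by IVIS within 10-15 min, after saline cardiac perfusion. Mean total flux (p/s) per organ ROI.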
structure (smiles),measurement,setting,value
"CCCCCCC(CCC(=O)OCC(COC(=O)CCCCCCOC(=O)C(CCCC)CCCCCC)(COC(=O)CCCCCCOC(=O)C(CCCC)CCCCCC)COC(=O)CC12CC3CC(CC(C3)C1)C2)OC(=O)NCCN1CCCC1 (stereo not drawn) [Compound 57, [7-[2-[[2-(1-adamantyl)acetyl]oxymethyl]-2-[7-(2-butyloctanoyloxy)heptanoyloxymethyl]-3-[4-(2-pyrrolidin-1-ylethylcarbamoyloxy)decanoyloxy]propoxy]-7-oxo-heptyl]2-butyloctanoate]",Organ Mean Total Flux Femur,"Mouse 3, dose 1.0 mg/kg",7.4 p/s (×10^6)
same,Organ Mean Total Flux Heart,"Mouse 3, dose 1.0 mg/kg",16.1 p/s (×10^6)
same,Organ Mean Total Flux Kidney,"Mouse 3, dose 1.0 mg/kg",11.4 p/s (×10^6)
same,Organ Mean Total Flux Liver,"Mouse 3, dose 1.0 mg/kg",25033 p/s (×10^6)
same,Organ Mean Total Flux Lung,"Mouse 3, dose 1.0 mg/kg",71.8 p/s (×10^6)
same,Organ Mean Total Flux Muscle,"Mouse 3, dose 1.0 mg/kg",16.4 p/s (×10^6)
same,Organ Mean Total Flux Pancreas,"Mouse 3, dose 1.0 mg/kg",2.7 p/s (×10^6)
same,Organ Mean Total Flux Spleen,"Mouse 3, dose 1.0 mg/kg",6.5 p/s (×10^6)
"CCCCCCC(CCC(=O)OCC(COC(=O)CCCCCOC(=O)C(CCCC)CCCCCC)(COC(=O)CCCCCOC(=O)C(CCCC)CCCCCC)COC(=O)CC12CC3CC(CC(C3)C1)C2)OC(=O)NCCN1CCCC1 (stereo not drawn) [Compound 58, [6-[2-[[2-(1-adamantyl)acetyl]oxymethyl]-2-[6-(2-butyloctanoyloxy)hexanoyloxymethyl]-3-[4-(2-pyrolidin-1-ylethylcarbamoyloxy)decanoyloxy]propoxy]-6-oxo-hexyl]2-butyloctanoate]",Organ Mean Total Flux Femur,"Mouse 3, dose 1.0 mg/kg",11.5 p/s (×10^6)
same,Organ Mean Total Flux Heart,"Mouse 3, dose 1.0 mg/kg",2.8 p/s (×10^6)
same,Organ Mean Total Flux Kidney,"Mouse 3, dose 1.0 mg/kg",2.6 p/s (×10^6)
same,Organ Mean Total Flux Liver,"Mouse 3, dose 1.0 mg/kg",1493 p/s (×10^6)
same,Organ Mean Total Flux Lung,"Mouse 3, dose 1.0 mg/kg",41.0 p/s (×10^6)
same,Organ Mean Total Flux Muscle,"Mouse 3, dose 1.0 mg/kg",29.1 p/s (×10^6)
same,Organ Mean Total Flux Pancreas,"Mouse 3, dose 1.0 mg/kg",9.2 p/s (×10^6)
same,Organ Mean Total Flux Spleen,"Mouse 3, dose 1.0 mg/kg",10.5 p/s (×10^6)
"CCCCCCC(CCC(=O)OCC(COC(=O)CCCCOC(=O)C(CCCC)CCCCCC)(COC(=O)CCCCOC(=O)C(CCCC)CCCCCC)COC(=O)CC12CC3CC(CC(C3)C1)C2)OC(=O)NCCN1CCCC1 (stereo not drawn) [Compound 59, [5-[2-[[2-(1-adamantyl)acetyl]oxymethyl]-2-[5-(2-butyloctanoyloxy)pentanoyloxymethyl]-3-[4-(2-pyrrolidin-1-ylethylcarbamoyloxy)decanoyloxy]propoxy]-5-oxo-pentyl]2-butyloctanoate]",Organ Mean Total Flux Femur,"Mouse 13, dose 0.5 mg/kg",2.6 p/s (×10^6)
same,Organ Mean Total Flux Heart,"Mouse 13, dose 0.5 mg/kg",2.6 p/s (×10^6)
same,Organ Mean Total Flux Kidney,"Mouse 13, dose 0.5 mg/kg",1.5 p/s (×10^6)
same,Organ Mean Total Flux Liver,"Mouse 13, dose 0.5 mg/kg",1967 p/s (×10^6)
same,Organ Mean Total Flux Lung,"Mouse 13, dose 0.5 mg/kg",9.9 p/s (×10^6)
same,Organ Mean Total Flux Muscle,"Mouse 13, dose 0.5 mg/kg",4.7 p/s (×10^6)
same,Organ Mean Total Flux Pancreas,"Mouse 13, dose 0.5 mg/kg",0.7 p/s (×10^6)
same,Organ Mean Total Flux Spleen,"Mouse 13, dose 0.5 mg/kg",2.8 p/s (×10^6)
CCCCC/C=C\CCOC(=O)CCCCCC(=O)OCC(COC(=O)CCCCC)(COC(=O)CCCCCC(=O)OCC/C=C\CCCCC)COC(=O)CCC(CCCCCC)OC(=O)NCCN1CCCC1 (stereo not drawn) [Compound 60],Organ Mean Total Flux Femur,"Mouse 2, dose 1.0 mg/kg",56.4 p/s (×10^6)
same,Organ Mean Total Flux Heart,"Mouse 2, dose 1.0 mg/kg",2.9 p/s (×10^6)
same,Organ Mean Total Flux Kidney,"Mouse 2, dose 1.0 mg/kg",5.5 p/s (×10^6)
same,Organ Mean Total Flux Liver,"Mouse 2, dose 1.0 mg/kg",1118 p/s (×10^6)
same,Organ Mean Total Flux Lung,"Mouse 2, dose 1.0 mg/kg",72.8 p/s (×10^6)
same,Organ Mean Total Flux Muscle,"Mouse 2, dose 1.0 mg/kg",28.7 p/s (×10^6)
same,Organ Mean Total Flux Pancreas,"Mouse 2, dose 1.0 mg/kg",86.2 p/s (×10^6)
same,Organ Mean Total Flux Spleen,"Mouse 2, dose 1.0 mg/kg",367.7 p/s (×10^6)
same,Organ Mean Total Flux Femur,"Mouse 14, dose 0.5 mg/kg",11.4 p/s (×10^6)
same,Organ Mean Total Flux Heart,"Mouse 14, dose 0.5 mg/kg",2.5 p/s (×10^6)
same,Organ Mean Total Flux Kidney,"Mouse 14, dose 0.5 mg/kg",4.1 p/s (×10^6)
same,Organ Mean Total Flux Liver,"Mouse 14, dose 0.5 mg/kg",448.0 p/s (×10^6)
same,Organ Mean Total Flux Lung,"Mouse 14, dose 0.5 mg/kg",20.5 p/s (×10^6)
same,Organ Mean Total Flux Muscle,"Mouse 14, dose 0.5 mg/kg",14.9 p/s (×10^6)
same,Organ Mean Total Flux Pancreas,"Mouse 14, dose 0.5 mg/kg",18.0 p/s (×10^6)
same,Organ Mean Total Flux Spleen,"Mouse 14, dose 0.5 mg/kg",42.7 p/s (×10^6)
"CCCCC/C=C\CCOC(=O)CCCCC(=O)OCC(COC(=O)CCCCC(=O)OCC/C=C\CCCCC)(COC(=O)CCC(CCCC)CCOC(=O)NCCN1CCCC1)COC(=O)CC12CC3CC(CC(C3)C1)C2 (stereo not drawn) [Compound 61, O6-[2-[[2-(1-adamantyl)acetyl]oxymethyl]-2-[[6-[(Z)-non-3-enoxy]-6-oxo-hexanoyl]-oxymethyl]-3-[4-[2-(2-pyrrolidin-1-ylethylcarbamoyloxy)ethyl]octanoyloxy]propyl]O1-[(Z)-non-3-enyl]hexanedioate]",Organ Mean Total Flux Femur,"Mouse 2, dose 1.0 mg/kg",34.2 p/s (×10^6)
same,Organ Mean Total Flux Heart,"Mouse 2, dose 1.0 mg/kg",1.9 p/s (×10^6)
same,Organ Mean Total Flux Kidney,"Mouse 2, dose 1.0 mg/kg",4.8 p/s (×10^6)
same,Organ Mean Total Flux Liver,"Mouse 2, dose 1.0 mg/kg",542.7 p/s (×10^6)
same,Organ Mean Total Flux Lung,"Mouse 2, dose 1.0 mg/kg",123.9 p/s (×10^6)
same,Organ Mean Total Flux Muscle,"Mouse 2, dose 1.0 mg/kg",28.1 p/s (×10^6)
same,Organ Mean Total Flux Pancreas,"Mouse 2, dose 1.0 mg/kg",28.8 p/s (×10^6)
same,Organ Mean Total Flux Spleen,"Mouse 2, dose 1.0 mg/kg",85.1 p/s (×10^6)
same,Organ Mean Total Flux Femur,"Mouse 14, dose 0.5 mg/kg",16.6 p/s (×10^6)
same,Organ Mean Total Flux Heart,"Mouse 14, dose 0.5 mg/kg",1.0 p/s (×10^6)
same,Organ Mean Total Flux Kidney,"Mouse 14, dose 0.5 mg/kg",5.0 p/s (×10^6)
same,Organ Mean Total Flux Liver,"Mouse 14, dose 0.5 mg/kg",157.3 p/s (×10^6)
same,Organ Mean Total Flux Lung,"Mouse 14, dose 0.5 mg/kg",33.8 p/s (×10^6)
same,Organ Mean Total Flux Muscle,"Mouse 14, dose 0.5 mg/kg",11.1 p/s (×10^6)
same,Organ Mean Total Flux Pancreas,"Mouse 14, dose 0.5 mg/kg",51.6 p/s (×10^6)
same,Organ Mean Total Flux Spleen,"Mouse 14, dose 0.5 mg/kg",109.9 p/s (×10^6)
"CCCCC/C=C\CCOC(=O)CCCCC(=O)OCC(COC(=O)CCCCC(=O)OCC/C=C\CCCCC)(COC(=O)CCC(CCCCCCCC)OC(=O)NCCN1CCCC1)COC(=O)CC12CC3CC(CC(C3)C1)C2 (stereo not drawn) [Compound 66, O6-[2-[[2-(1-adamantyl)acetyl]oxymethyl]-2-[[6-[(Z)-non-3-enoxy]-6-oxohexanoyl]oxymethyl]-3-[4-(2-pyrrolidin-1-ylethylcarbamoyloxy)dodecanoyloxy]propyl]O1-[(Z)-non-3-enyl]hexanedioate]",Organ Mean Total Flux Femur,"Mouse 9, dose 0.5 mg/kg",5.5 p/s (×10^6)
same,Organ Mean Total Flux Heart,"Mouse 9, dose 0.5 mg/kg",1.3 p/s (×10^6)
same,Organ Mean Total Flux Kidney,"Mouse 9, dose 0.5 mg/kg",1.8 p/s (×10^6)
same,Organ Mean Total Flux Liver,"Mouse 9, dose 0.5 mg/kg",68.9 p/s (×10^6)
same,Organ Mean Total Flux Lung,"Mouse 9, dose 0.5 mg/kg",14.1 p/s (×10^6)
same,Organ Mean Total Flux Muscle,"Mouse 9, dose 0.5 mg/kg",11.3 p/s (×10^6)
same,Organ Mean Total Flux Pancreas,"Mouse 9, dose 0.5 mg/kg",4.0 p/s (×10^6)
same,Organ Mean Total Flux Spleen,"Mouse 9, dose 0.5 mg/kg",7.8 p/s (×10^6)
"CCCCC/C=C\CCOC(=O)CCCCC(=O)OCC(COC(=O)CCCCC(=O)OCC/C=C\CCCCC)(COC(=O)CCC(CCCCCC)OC(=O)NCCN1CCCC1)COC(=O)C12CCC(CC1)CC2 (stereo not drawn) [Compound 67, O6-[2-(bicyclo[2.2.2]octane-1-carbonyloxymethyl)-2-[[6-[(Z)-non-3-enoxy]-6-oxo-hexanoyl]-oxymethyl]-3-[4-(2-pyrrolidin-1-ylethylcarbamoyloxy)decanoyloxy]propyl]O1-[(Z)-non-3-enyl]hexanedioate]",Organ Mean Total Flux Femur,"Mouse 12, dose 0.5 mg/kg",10.8 p/s (×10^6)
same,Organ Mean Total Flux Heart,"Mouse 12, dose 0.5 mg/kg",0.4 p/s (×10^6)
same,Organ Mean Total Flux Kidney,"Mouse 12, dose 0.5 mg/kg",1.9 p/s (×10^6)
same,Organ Mean Total Flux Liver,"Mouse 12, dose 0.5 mg/kg",220.0 p/s (×10^6)
same,Organ Mean Total Flux Lung,"Mouse 12, dose 0.5 mg/kg",11.8 p/s (×10^6)
same,Organ Mean Total Flux Muscle,"Mouse 12, dose 0.5 mg/kg",22.8 p/s (×10^6)
same,Organ Mean Total Flux Pancreas,"Mouse 12, dose 0.5 mg/kg",10.4 p/s (×10^6)
same,Organ Mean Total Flux Spleen,"Mouse 12, dose 0.5 mg/kg",50.1 p/s (×10^6)
"CCCCC/C=C\CCOC(=O)CCCCC(=O)OCC(COC(=O)CCCCC(=O)OCC/C=C\CCCCC)(COC(=O)CCC(CCCCCC)OC(=O)NCCN1CCCC1)COC(=O)CC1CCC1 (stereo not drawn) [Compound 73, O6-[2-[(2-cyclobutylacetyl)oxymethyl]-2-[[6-[(Z)-non-3-enoxy]-6-oxo-hexanoyl]oxymethyl]-3-[4-(2-pyrrolidin-1-ylethylcarbamoyloxy)decanoyloxy]propyl]O1-[(Z)-non-3-enyl]hexanedioate]",Organ Mean Total Flux Femur,"Mouse 12, dose 0.5 mg/kg",7.3 p/s (×10^6)
same,Organ Mean Total Flux Heart,"Mouse 12, dose 0.5 mg/kg",0.5 p/s (×10^6)
same,Organ Mean Total Flux Kidney,"Mouse 12, dose 0.5 mg/kg",1.7 p/s (×10^6)
same,Organ Mean Total Flux Liver,"Mouse 12, dose 0.5 mg/kg",127.7 p/s (×10^6)
same,Organ Mean Total Flux Lung,"Mouse 12, dose 0.5 mg/kg",10.6 p/s (×10^6)
same,Organ Mean Total Flux Muscle,"Mouse 12, dose 0.5 mg/kg",6.8 p/s (×10^6)
same,Organ Mean Total Flux Pancreas,"Mouse 12, dose 0.5 mg/kg",15.7 p/s (×10^6)
same,Organ Mean Total Flux Spleen,"Mouse 12, dose 0.5 mg/kg",49.2 p/s (×10^6)
"CCCCC/C=C\CCOC(=O)CCCCC(=O)OCC(COC(=O)CCCCC(=O)OCC/C=C\CCCCC)(COC(=O)CCC(CCCCCC)OC(=O)NCCN1CCCC1)COC(=O)C1CC2C(C1)C2(F)F (stereo not drawn) [Compound 81, O6-[2-[(6,6-difluorobicyclo[3.1.0]hexane-3-carbonyl)oxymethyl]-2-[[6-[(Z)-non-3-enoxy]-6-oxo-hexanoyl]oxymethyl]-3-[4-(2-pyrrolidin-1-ylethylcarbamoyloxy)decanoyloxy]propyl]O1-[(Z)-non-3-enyl]hexanedioate]",Organ Mean Total Flux Femur,"Mouse 12, dose 0.5 mg/kg",11.1 p/s (×10^6)
same,Organ Mean Total Flux Heart,"Mouse 12, dose 0.5 mg/kg",1.2 p/s (×10^6)
same,Organ Mean Total Flux Kidney,"Mouse 12, dose 0.5 mg/kg",4.0 p/s (×10^6)
same,Organ Mean Total Flux Liver,"Mouse 12, dose 0.5 mg/kg",727.0 p/s (×10^6)
same,Organ Mean Total Flux Lung,"Mouse 12, dose 0.5 mg/kg",12.1 p/s (×10^6)
same,Organ Mean Total Flux Muscle,"Mouse 12, dose 0.5 mg/kg",5.7 p/s (×10^6)
same,Organ Mean Total Flux Pancreas,"Mouse 12, dose 0.5 mg/kg",12.9 p/s (×10^6)
same,Organ Mean Total Flux Spleen,"Mouse 12, dose 0.5 mg/kg",115.9 p/s (×10^6)
"CCCCC/C=C\CCOC(=O)CCCCC(=O)OCC(COC(=O)CCCCC(=O)OCC/C=C\CCCCC)(COC(=O)CCC(CCCCCC)OC(=O)NCCN1CCCC1)COC(=O)CC12CC(C1)C2 (stereo not drawn) [Compound 91, O6-[2-[[2-(1-bicyclo[1.1.1]pentanyl)acetyl]oxymethyl]-2-[[6-[(Z)-non-3-enoxy]-6-oxo-hexanoyl]oxymethyl]-3-[4-(2-pyrrolidin-1ylethylcarbamoyloxy)decanoyloxy]propyl]O1-[(Z)-non-3-enyl]hexanedioate]",Organ Mean Total Flux Femur,"Mouse 12, dose 0.5 mg/kg",15.8 p/s (×10^6)
same,Organ Mean Total Flux Heart,"Mouse 12, dose 0.5 mg/kg",2.6 p/s (×10^6)
same,Organ Mean Total Flux Kidney,"Mouse 12, dose 0.5 mg/kg",12.3 p/s (×10^6)
same,Organ Mean Total Flux Liver,"Mouse 12, dose 0.5 mg/kg",404.7 p/s (×10^6)
same,Organ Mean Total Flux Lung,"Mouse 12, dose 0.5 mg/kg",26.3 p/s (×10^6)
same,Organ Mean Total Flux Muscle,"Mouse 12, dose 0.5 mg/kg",7.8 p/s (×10^6)
same,Organ Mean Total Flux Pancreas,"Mouse 12, dose 0.5 mg/kg",76.4 p/s (×10^6)
same,Organ Mean Total Flux Spleen,"Mouse 12, dose 0.5 mg/kg",123.6 p/s (×10^6)
